Reference: US10501425B2, “Microbiocidal oxadiazole derivatives” (SYNGENTA PARTICIPATIONS AG, priority 2015, dated 2019)

Columns and labels:
[1] = tested on: Puccinia recondita f. Sp. Tritici; test: Puccinia recondita f. sp. tritici / wheat / leaf disc curative (brown rust); type: in vivo; conditions: foliar, 24 h, 200 ppm in the applied formulation, wheat leaf segments cv. Kanzler, curative (applied 1 day after inoculation), compared to untreated, read-out: disease control
Protocol: (§1) Leaf disks or leaf segments of various plant species are cut from plants grown in a greenhouse. The cut leaf disks or segments are placed in multiwell plates (24-well format) onto water agar. The leaf disks are sprayed with a test solution before (preventative) or after (curative) inoculation. Compounds to be tested are prepared as DMSO solutions (max. 10 mg/ml) which are diluted to the appropriate concentration with 0.025% Tween20 just before spraying. The inoculated leaf disks or segments are incubated under defined conditions (temperature, relative humidity, light, etc.) according to the respective test system. A single evaluation of disease level is carried out 3 to 14 days after inoculation, depending on the pathosystem. Percent disease control relative to the untreated check leaf disks or segments is then calculated.
Wheat leaf segments cv. Kanzler are placed on agar in multiwell plates (24-well format). The leaf segments are then inoculated with a spore suspension of the fungus. Plates were stored in darkness at 19° C. and 75% relative humidity. The formulated test compound diluted in water was applied 1 day after inoculation. The leaf segments were incubated at 19° C. and 75% relative humidity under a light regime of 12 hours light/12 hours darkness in a climate cabinet and the activity of a compound was assessed as percent disease control compared to untreated when an appropriate level of disease damage appears in untreated check leaf segments (6 to 8 days after application).
The following compounds at 200 ppm in the applied formulation give at least 80% disease control in this test when compared to untreated control leaf disks under the same conditions, which show extensive disease development.

[2] = tested on: Glomerella lacenarium (Colletotrichum lagenarium); test: Glomerella lagenarium liquid culture / cucumber / preventative (anthracnose); type: cell-based; conditions: Colletotrichum orbiculare; 20 ppm in the applied formulation; liquid culture (PDB), growth inhibition measured photometrically 3 to 4 days after application; compared to untreated; read-out: disease control
Protocol: Mycelia fragments or conidia suspensions of a fungus prepared either freshly from liquid cultures of the fungus or from cryogenic storage, are directly mixed into nutrient broth. DMSO solutions of the test compound (max. 10 mg/ml) are diluted with 0.025% Tween20 by a factor of 50 and 10 μl of this solution is pipetted into a microtiter plate (96-well format). The nutrient broth containing the fungal spores/mycelia fragments is then added to give an end concentration of the tested compound. The test plates are incubated in the dark at 24° C. and 96% relative humidity. The inhibition of fungal growth is determined photometrically after 2 to 7 days, depending on the pathosystem, and percent antifungal activity relative to the untreated check is calculated.
Conidia of the fungus from cryogenic storage are directly mixed into nutrient broth (PDB—potato dextrose broth). After placing a (DMSO) solution of test compound into a microtiter plate (96-well format), the nutrient broth containing the fungal spores is added.
The following compounds at 20 ppm in the applied formulation give at least 80% disease control in this test when compared to untreated control under the same conditions, which show extensive disease development.

[3] = tested on: Puccinia recondita f. Sp. Tritici; test: Puccinia recondita f. sp. tritici / wheat / leaf disc preventative (brown rust); type: in vivo; conditions: foliar, 200 ppm in the applied formulation, wheat leaf segments cv. Kanzler, preventative (inoculated 1 day after application), compared to untreated, read-out: disease control
Protocol: as §1, with “calculated. Wheat leaf segments cv. Kanzler were placed on agar in multiwell plates (24-well format) and sprayed with the formulated test compound diluted in water. The leaf disks were inoculated with a spore suspension of the fungus 1 day after application. The inoculated leaf segments were incubated at 19° C. and 75% relative humidity (rh) under a light regime of 12 hours light/12 hours darkness in a climate cabinet and the activity of a compound was assessed as percent disease control compared to untreated when an appropriate level of disease damage appears in untreated check leaf segments (7 to 9 days after application). The following compounds at 200 ppm in the applied formulation give at least 80% disease control in this test when compared to untreated control leaf disks under the same conditions, which show extensive disease development.” for “calculated.”

COCCCC(=O)NCc1ccc(-c2noc(C(F)(F)F)n2)cn1 [Compound 1.72, 4-methoxy-N-[[5-[5-(trifluoromethyl)-1,2,4-oxadiazol-3-yl]-2-pyridyl]methyl]butanamide]
≥ 80%: pest or weed control at 200 ppm [1] | inhibition of growth at 20 ppm [2] | pest or weed control at 200 ppm [3]

O=C(NCc1ccc(-c2noc(C(F)(F)F)n2)cn1)OCCCCCl [Compound 2.28, 4-chlorobutyl N-[[5-[5-(trifluoromethyl)-1,2,4-oxadiazol-3-yl]-2-pyridyl]methyl]carbamate]
≥ 80%: pest or weed control at 200 ppm [1] | inhibition of growth at 20 ppm [2] | pest or weed control at 200 ppm [3]

CCC(C)C(=O)NCc1ccc(-c2noc(C(F)(F)F)n2)cn1 (stereo not drawn) [Compound 1.71, 2-methyl-N-[[5-[5-(trifluoromethyl)-1,2,4-oxadiazol-3-yl]-2-pyridyl]methyl]butanamide]
≥ 80%: pest or weed control at 200 ppm [1] | inhibition of growth at 20 ppm [2] | pest or weed control at 200 ppm [3]

C#CCOC(=O)NCc1ccc(-c2noc(C(F)(F)F)n2)cn1 [Compound 2.35, prop-2-ynyl N-[[5-[5-(trifluoromethyl)-1,2,4-oxadiazol-3-yl]-2-pyridyl]methyl]carbamate]
≥ 80%: pest or weed control at 200 ppm [1] | inhibition of growth at 20 ppm [2] | pest or weed control at 200 ppm [3]

COCCCC(=O)NCc1ccc(-c2noc(C(F)(F)F)n2)c(F)c1 [Compound 1.40, N-[[3-fluoro-4-[5-(trifluoromethyl)-1,2,4-oxadiazol-3-yl]phenyl]methyl]-4-methoxy-butanamide]
≥ 80%: pest or weed control at 200 ppm [1] | inhibition of growth at 20 ppm [2] | pest or weed control at 200 ppm [3]

COCCCC(=O)NCc1ccc(-c2noc(C(F)(F)F)n2)c(F)c1F [Compound 1.61, N-[[2,3-difluoro-4-[5-(trifluoromethyl)-1,2,4-oxadiazol-3-yl]phenyl]methyl]-4-methoxy-butanamide]
≥ 80%: pest or weed control at 200 ppm [1] | inhibition of growth at 20 ppm [2] | pest or weed control at 200 ppm [3]

O=C(NCc1ccc(-c2noc(C(F)(F)F)n2)cn1)OCCF [Compound 2.30, 2-fluoroethyl N-[[5-[5-(trifluoromethyl)-1,2,4-oxadiazol-3-yl]-2-pyridyl]methyl]carbamate]
≥ 80%: pest or weed control at 200 ppm [1] | inhibition of growth at 20 ppm [2] | pest or weed control at 200 ppm [3]

CC(C)(C)NC(=O)NCc1ccc(-c2noc(C(F)(F)F)n2)cc1 [Compound 3.15, 1-tert-butyl-3-[[4-[5-(trifluoromethyl)-1,2,4-oxadiazol-3-yl]phenyl]methyl]urea]
≥ 80%: pest or weed control at 200 ppm [1] | inhibition of growth at 20 ppm [2] | pest or weed control at 200 ppm [3]

COCCCC(=O)NCc1ccc(-c2noc(C(F)(F)F)n2)cc1F [Compound 1.42, N-[[2-fluoro-4-[5-(trifluoromethyl)-1,2,4-oxadiazol-3-yl]phenyl]methyl]-4-methoxy-butanamide]
≥ 80%: pest or weed control at 200 ppm [1] | inhibition of growth at 20 ppm [2] | pest or weed control at 200 ppm [3]

COCCC(=O)NCc1ccc(-c2noc(C(F)(F)F)n2)c(F)c1F [Compound 1.53, N-[[2,3-difluoro-4-[5-(trifluoromethyl)-1,2,4-oxadiazol-3-yl]phenyl]methyl]-3-methoxy-propanamide]
≥ 80%: pest or weed control at 200 ppm [1] | inhibition of growth at 20 ppm [2] | pest or weed control at 200 ppm [3]

O=C(NCc1ccc(-c2noc(C(F)(F)F)n2)cn1)OCCCCl [Compound 2.31, 3-chloropropyl N-[[5-[5-(trifluoromethyl)-1,2,4-oxadiazol-3-yl]-2-pyridyl]methyl]carbamate]
≥ 80%: pest or weed control at 200 ppm [1] | inhibition of growth at 20 ppm [2] | pest or weed control at 200 ppm [3]

COCCC(=O)NCc1ccc(-c2noc(C(F)(F)F)n2)cc1F [Compound 1.37, N-[[2-fluoro-4-[5-(trifluoromethyl)-1,2,4-oxadiazol-3-yl]phenyl]methyl]-3-methoxy-propanamide]
≥ 80%: pest or weed control at 200 ppm [1] | inhibition of growth at 20 ppm [2] | pest or weed control at 200 ppm [3]

CC(=O)NCc1ccc(-c2noc(C(F)(F)F)n2)cn1 [Compound 1.75, N-[[5-[5-(trifluoromethyl)-1,2,4-oxadiazol-3-yl]-2-pyridyl]methyl]acetamide]
≥ 80%: pest or weed control at 200 ppm [1] | inhibition of growth at 20 ppm [2] | pest or weed control at 200 ppm [3]

N#CCC(=O)NCc1ccc(-c2noc(C(F)(F)F)n2)c(F)c1F [Compound 1.62, 2-cyano-N-[[2,3-difluoro-4-[5-(trifluoromethyl)-1,2,4-oxadiazol-3-yl]phenyl]methyl]acetamide]
≥ 80%: pest or weed control at 200 ppm [1] | inhibition of growth at 20 ppm [2] | pest or weed control at 200 ppm [3]

CC#CCOC(=O)NCc1ccc(-c2noc(C(F)(F)F)n2)cn1 [Compound 2.21, but-2-ynyl N-[[5-[5-(trifluoromethyl)-1,2,4-oxadiazol-3-yl]-2-pyridyl]methyl]carbamate]
≥ 80%: pest or weed control at 200 ppm [1] | inhibition of growth at 20 ppm [2] | pest or weed control at 200 ppm [3]

COCCC(=O)NCc1ccc(-c2noc(C(F)(F)F)n2)c(F)c1 [Compound 1.79, N-[[3-fluoro-4-[5-(trifluoromethyl)-1,2,4-oxadiazol-3-yl]phenyl]methyl]-3-methoxy-propanamide]
≥ 80%: pest or weed control at 200 ppm [1] | inhibition of growth at 20 ppm [2] | pest or weed control at 200 ppm [3]

COCCOC(=O)NCc1ccc(-c2noc(C(F)(F)F)n2)cn1 [Compound 2.24, 2-methoxyethyl N-[[5-[5-(trifluoromethyl)-1,2,4-oxadiazol-3-yl]-2-pyridyl]methyl]carbamate]
≥ 80%: pest or weed control at 200 ppm [1] | inhibition of growth at 20 ppm [2] | pest or weed control at 200 ppm [3]

O=C(NCc1ccc(-c2noc(C(F)(F)F)n2)cn1)OCCCl [Compound 2.33, 2-chloroethyl N-[[5-[5-(trifluoromethyl)-1,2,4-oxadiazol-3-yl]-2-pyridyl]methyl]carbamate]
≥ 80%: pest or weed control at 200 ppm [1] | inhibition of growth at 20 ppm [2] | pest or weed control at 200 ppm [3]

CC(C)C(=O)NCc1ccc(-c2noc(C(F)(F)F)n2)cn1 [Compound 1.66, 2-methyl-N-[[5-[5-(trifluoromethyl)-1,2,4-oxadiazol-3-yl]-2-pyridyl]methyl]propanamide]
≥ 80%: pest or weed control at 200 ppm [1] | inhibition of growth at 20 ppm [2] | pest or weed control at 200 ppm [3]

N#CCC(=O)NCc1ccc(-c2noc(C(F)(F)F)n2)cc1F [Compound 1.45, 2-cyano-N-[[2-fluoro-4-[5-(trifluoromethyl)-1,2,4-oxadiazol-3-yl]phenyl]methyl]acetamide]
≥ 80%: pest or weed control at 200 ppm [1] | inhibition of growth at 20 ppm [2] | pest or weed control at 200 ppm [3]

C=CCOC(=O)NCc1ccc(-c2noc(C(F)(F)F)n2)cn1 [Compound 2.25, allyl N-[[5-[5-(trifluoromethyl)-1,2,4-oxadiazol-3-yl]-2-pyridyl]methyl]carbamate]
≥ 80%: pest or weed control at 200 ppm [1] | inhibition of growth at 20 ppm [2] | pest or weed control at 200 ppm [3]

CCCOC(=O)NCc1ccc(-c2noc(C(F)(F)F)n2)cn1 [Compound 2.20, propyl N-[[5-[5-(trifluoromethyl)-1,2,4-oxadiazol-3-yl]-2-pyridyl]methyl]carbamate]
≥ 80%: pest or weed control at 200 ppm [1] | inhibition of growth at 20 ppm [2] | pest or weed control at 200 ppm [3]
